Results published in patent US9200020B2, “6-oxopurine phosphoribosyltransferase inhibitors” (THE UNIVERSITY OF QUEENSLAND, priority 2012, dated 2015).
Like-named read-outs stand apart in the source and are kept apart here.

Columns and labels:
E. coli XGPRT = E. coli XGPRT (Escherichia coli (strain K12), UniProt P0A9M5); assay: Ki values with E. coli XGPRT; settings: read-out: Ki (μM) XGPRT
P. falciparum strain D6 = assay: [3H]-hypoxanthine growth inhibition assay, P. falciparum D6; settings: Plasmodium falciparum; for IC50: D6, read-out: D6 IC50; for IC90: D6, read-out: D6 IC90
P. falciparum strain W2 = assay: [3H]-hypoxanthine growth inhibition assay, P. falciparum W2; settings: Plasmodium falciparum; for IC50: W2, read-out: W2 IC50; for IC90: W2, read-out: W2 IC90
PvHGPRT = PvHGPRT (Plasmodium vivax, UniProt A5K7E9); assay: biochemical; settings: for Ki ratio (proto:phosphonatoethyl): PvHGPRT, decrease in Ki when N-H is replaced by phosphonoethyl
PfHGXPRT = PfHGXPRT (Plasmodium falciparum (isolate FCR-3 / Gambia), UniProt P20035); assay: biochemical; type: biochemical
human HGPRT = human HGPRT (Homo sapiens (Human), UniProt P00492); assay: Ki determination, spectrophotometric assay, human HGPRT; type: biochemical; settings: Ki(app), 25° C., pH 7.4, guanine 60 μM
[1] = system: M. tuberculosis H37Ra (ATCC 25177); assay: Resazurin reduction microplate assay, M. tuberculosis; settings: five days at 37° C., resazurin fluorescence
[2] = Ki(app), 25° C., pH 7.4, guanine 60 μM, read-out: Ki Pv
[3] = Ki(app), 25° C., pH 7.4, guanine 60 μM, read-out: Ki Pf

Chain of human HGPRT (P00492 whole entry): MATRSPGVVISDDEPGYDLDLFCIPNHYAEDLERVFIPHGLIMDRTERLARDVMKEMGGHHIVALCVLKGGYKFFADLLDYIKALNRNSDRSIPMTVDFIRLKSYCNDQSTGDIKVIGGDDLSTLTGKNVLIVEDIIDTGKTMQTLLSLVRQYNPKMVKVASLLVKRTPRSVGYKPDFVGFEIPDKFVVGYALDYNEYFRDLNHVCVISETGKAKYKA
Chain of PvHGPRT (A5K7E9 1-233): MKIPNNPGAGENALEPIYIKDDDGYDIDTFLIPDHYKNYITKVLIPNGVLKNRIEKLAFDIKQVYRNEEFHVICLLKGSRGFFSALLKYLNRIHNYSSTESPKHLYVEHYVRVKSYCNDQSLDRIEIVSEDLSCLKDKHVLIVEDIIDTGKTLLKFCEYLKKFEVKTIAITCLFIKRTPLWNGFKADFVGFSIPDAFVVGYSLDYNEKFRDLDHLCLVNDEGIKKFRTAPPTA

Nc1nc2c(ncn2CCN(CCOCP(=O)(O)O)CCP(=O)(O)O)c(=O)[nH]1 [Compound 1]
Ki (E. coli XGPRT): 0.4 µM

Nc1nc2c(ncn2CCN(CCP(=O)(O)O)CP(=O)(O)O)c(=O)[nH]1 [Compound 2]
Ki (E. coli XGPRT): 27 µM

N#CCCCN(CCn1cnc2c(=O)[nH]c(N)nc21)CCP(=O)(O)O [Compound 4]
IC50 (P. falciparum strain D6): 8.6 ± 1.5 µM
IC90 (P. falciparum strain D6): 24.5 ± 3.5 µM
IC50 (P. falciparum strain W2): 5.7 ± 3.9 µM
IC90 (P. falciparum strain W2): 32.5 ± 3.5 µM

CCOC(=O)[C@H](Cc1ccccc1)NP(=O)(CCN(CCCC#N)CCn1cnc2c(=O)[nH]cnc21)N[C@@H](Cc1ccccc1)C(=O)OCC [Compound 6]
IC50 (P. falciparum strain D6): 4.2 ± 1.4 µM
IC90 (P. falciparum strain D6): 10.6 ± 1.8 µM
IC50 (P. falciparum strain W2): 5.5 ± 1.6 µM
IC90 (P. falciparum strain W2): 16.1 ± 0.1 µM

COC(=O)CCN(CCn1cnc2c(=O)[nH]c(N)nc21)CCP(=O)(O)O [Compound 8]
IC50 (P. falciparum strain D6): 3.5 ± 1 µM
IC90 (P. falciparum strain D6): 8.6 ± 1.4 µM
IC50 (P. falciparum strain W2): 2.9 ± 1.1 µM
IC90 (P. falciparum strain W2): 15.9 ± 4.5 µM

CCOC(=O)[C@H](Cc1ccccc1)NP(=O)(CCN(CCC(=O)OC)CCn1cnc2c(=O)[nH]c(N)nc21)N[C@@H](Cc1ccccc1)C(=O)OCC [Compound 10]
IC50 (P. falciparum strain D6): 11.8 ± 1.6 µM
IC90 (P. falciparum strain D6): 30 ± 2.9 µM
IC50 (P. falciparum strain W2): 5.6 ± 1.8 µM
IC90 (P. falciparum strain W2): 37.5 ± 3.5 µM

N#CCCN(CCn1cnc2c(=O)[nH]c(N)nc21)CCP(=O)(O)O [Compound 11]
IC50 (P. falciparum strain D6): ~145 µM

N#CCCN(CCn1cnc2c(=O)[nH]cnc21)CCP(=O)(O)O [Compound 12]
IC50 (P. falciparum strain D6): 6.4 ± 0.9 µM
IC90 (P. falciparum strain D6): 10.2 ± 1.6 µM
IC50 (P. falciparum strain W2): 10.4 ± 2 µM
IC90 (P. falciparum strain W2): 21.2 ± 1 µM

CCCOC(=O)[C@H](Cc1ccccc1)NP(=O)(CCN(CCC#N)CCn1cnc2c(=O)[nH]c(N)nc21)N[C@@H](Cc1ccccc1)C(=O)OCCC [Compound 13]
IC50 (P. falciparum strain D6): 75 µM
IC90 (P. falciparum strain D6): 215 µM

CCCOC(=O)[C@H](Cc1ccccc1)NP(=O)(CCN(CCC#N)CCn1cnc2c(=O)[nH]cnc21)N[C@@H](Cc1ccccc1)C(=O)OCCC [Compound 14]
IC50 (P. falciparum strain D6): 12.3 ± 1.6 µM
IC90 (P. falciparum strain D6): 18.7 ± 1.7 µM
IC50 (P. falciparum strain W2): 19.3 ± 7.5 µM
IC90 (P. falciparum strain W2): 48 ± 13.6 µM

COC(=O)CCCN(CCn1cnc2c(=O)[nH]c(N)nc21)CCP(=O)(O)O [Example 3, 9-[(N-(4-Methoxy-4-oxobutyl)-N-(2-phosphonoethyl))-2-aminoethyl]guanine]
Ki (PvHGPRT; Ki Pv): ≥ 200 µM

Nc1nc2c(ncn2CCN(CCP(=O)(O)O)CCP(=O)(O)O)c(=O)[nH]1 [Example 11, 9-[(N,N-(Bis-2-phosphonoethyl))-2-aminoethyl]guanine]
Ki ratio (proto:phosphonatoethyl) (PvHGPRT): 12-fold

Nc1nc2c(ncn2CCNCCP(=O)(O)O)c(=O)[nH]1 [Example 12, 9-[(N-(2-Phosphonoethyl))-2-aminoethyl]guanine]
Ki (PvHGPRT; [2]): 11 ± 0.6 µM
Ki (PfHGXPRT; [3]): 16000 ± 1000 nM
Ki (human HGPRT): 3 ± 0.6 µM

CCOC(=O)CN(CCn1cnc2c(=O)[nH]cnc21)CCP(=O)(O)O [Example 15, 9-[(N-(2-Ethoxy-2-oxoethyl)-N-(2-phosphonoethyl))-2-aminoethyl]hypoxanthine]
Ki (PvHGPRT; [2]): 11 ± 1 µM
Ki (PfHGXPRT; [3]): 1900 ± 400 nM
Ki (human HGPRT): 2.6 ± 0.5 µM

COC(=O)CCN(CCn1cnc2c(=O)[nH]cnc21)CCP(=O)(O)O [Example 16, 9-[(N-(3-Methoxy-3-oxopropyl)-N-(2-phosphonoethyl))-2-aminoethyl]hypoxanthine]
Ki (PvHGPRT; [2]): 21 ± 2 µM
Ki (PfHGXPRT; [3]): 100 ± 30 nM
Ki (human HGPRT): ≥ 200 µM

COC(=O)CCCN(CCn1cnc2c(=O)[nH]cnc21)CCP(=O)(O)O [Example 17, 9-[(N-(4-Methoxy-4-oxobutyl)-N-(2-phosphonoethyl))-2-aminoethyl] hypoxanthine]
Ki (PvHGPRT; [2]): ≥ 250 µM
Ki (PfHGXPRT; [3]): ≥ 220000 nM
Ki (human HGPRT): 22 ± 3 µM

N#CCN(CCn1cnc2c(=O)[nH]cnc21)CCP(=O)(O)O [Example 18, 9-[(N-(2-Cyanomethyl)-N-(2-phosphonoethyl))-2-aminoethyl]hypoxanthine]
Ki (PvHGPRT; [2]): 47 ± 5 µM
Ki (PfHGXPRT; [3]): ≥ 250000 nM
Ki (human HGPRT): 35 µM

N#CCCN(CCn1cnc2c(=O)[nH]cnc21)CCP(=O)(O)O [Example 19, 9-[(N-(2-Cyanoethyl)-N-(2-phosphonoethyl))-2-aminoethyl]hypoxanthine]
Ki (PvHGPRT; [2]): 0.7 ± 0.06 µM
Ki (PfHGXPRT; [3]): 200 ± 50 nM
Ki (human HGPRT): 2.4 ± 0.2 µM

CC(C#N)CN(CCn1cnc2c(=O)[nH]cnc21)CCP(=O)(O)O (stereo not shown) [Example 20, 9-[(N-(2-Cyanopropyl)-N-(2-phosphonoethyl))-2-aminoethyl]hypoxanthine]
Ki (PvHGPRT; [2]): ≥ 230 µM
Ki (PfHGXPRT; [3]): 6000 ± 60 nM
Ki (human HGPRT): 29 ± 2 µM

O=C(O)CN(CCn1cnc2c(=O)[nH]cnc21)CCP(=O)(O)O [Example 21, 9-[(N-(Carboxymethyl)-N-(2-phosphonoethyl))-2-aminoethyl]hypoxanthine]
Ki (PfHGXPRT): 600 ± 60 nM

O=C(O)CCN(CCn1cnc2c(=O)[nH]cnc21)CCP(=O)(O)O [Example 22, 9-[(N-(2-Carboxyethyl)-N-(2-phosphonoethyl))-2-aminoethyl]hypoxanthine]
Ki (PvHGPRT; [2]): 41 ± 5 µM
Ki (PfHGXPRT; [3]): 400 ± 30 nM
Ki (human HGPRT): ≥ 240 µM

O=C(O)CCCN(CCn1cnc2c(=O)[nH]cnc21)CCP(=O)(O)O [Example 23, 9-[(N-(Carboxypropyl)-N-(2-phosphonoethyl))-2-aminoethyl]hypoxanthine]
Ki (PfHGXPRT): ≥ 210000 nM

O=c1[nH]cnc2c1ncn2CCN(CCO)CCP(=O)(O)O [Example 24, 9-[(N-(2-Hydroxyethyl)-N-(2-phosphonoethyl))-2-aminoethyl]hypoxanthine]
Ki (PvHGPRT; [2]): 21 ± 3 µM
Ki (PfHGXPRT; [3]): 2600 ± 400 nM
Ki (human HGPRT): 5.5 ± 0.4 µM

O=c1[nH]cnc2c1ncn2CCN(CCP(=O)(O)O)CCP(=O)(O)O [Example 25, 9-[(N,N-(Bis-2-phosphonoethyl))-2-aminoethyl]hypoxanthine]
Ki ratio (proto:phosphonatoethyl) (PvHGPRT): >20-fold
Ki (PfHGXPRT): 400 ± 100 nM

O=c1[nH]cnc2c1ncn2CCNCCP(=O)(O)O [Example 26, 9-[(N-(2-Phosphonoethyl))-2-aminoethyl]hypoxanthine]
Ki (PvHGPRT; [2]): ≥ 250 µM
Ki (PfHGXPRT): ≥ 200000 nM
Ki (human HGPRT): 40 ± 2 µM

Nc1nc2c(ncn2CCOCCP(=O)(O)O)c(=O)[nH]1 [PEEG, 2-(Phosphonoethoxy)ethyl guanine, reference compound]
Ki (PfHGXPRT; [3]): 100 ± 20 nM
Ki (human HGPRT): 1 ± 0.5 µM

O=c1[nH]cnc2c1ncn2CCOCCP(=O)(O)O [PEEHx, 2-(phosphonoethoxy)ethyl hypoxanthine, reference compound]
Ki (PfHGXPRT; [3]): 300 ± 40 nM
Ki (human HGPRT): 3.6 ± 0.2 µM

CCOC(=O)[C@H](Cc1ccccc1)NP(=O)(CCN(CCCC#N)CCn1cnc2c(=O)[nH]cnc21)N[C@@H](Cc1ccccc1)C(=O)OCC [drawing 83]
IC50 [1]: 60 µM
